Read-outs that look alike come from different tables or passages of the source.
Tests used:
[1] = tested on: HSV-1; set-up: method as in ref 35, 38 (a number printed in a supplementary file, which may have a reference list of its own: not looked up in the article's list); conditions: Table S1; read-out: antiviral EC50, HSV-1; cited from earlier work
[2] = Neutral Red uptake cell viability assay, MEF; conditions: mouse
[3] = tested on: ChCMV; set-up: method as in ref 35, 38 (a number printed in a supplementary file, which may have a reference list of its own: not looked up in the article's list); conditions: Table S1; read-out: antiviral EC50, ChCMV; cited from earlier work
[4] = tested on: RCMV; set-up: method as in ref 35, 38 (a number printed in a supplementary file, which may have a reference list of its own: not looked up in the article's list); conditions: Table S1; read-out: antiviral EC50, RCMV; cited from earlier work
[5] = tested on: JCPyV; set-up: method as in ref 35, 38 (a number printed in a supplementary file, which may have a reference list of its own: not looked up in the article's list); conditions: Table S1; read-out: antiviral EC50, JCPyV; cited from earlier work
[6] = tested on: MCMV; set-up: method as in ref 35, 38 (a number printed in a supplementary file, which may have a reference list of its own: not looked up in the article's list); conditions: Table S1; read-out: antiviral EC50, MCMV; cited from earlier work
[7] = tested on: VZV; set-up: method as in ref 35, 38 (a number printed in a supplementary file, which may have a reference list of its own: not looked up in the article's list); conditions: Table S1; read-out: antiviral EC50, VZV; cited from earlier work
[8] = in vitro; conditions: human
[9] = Neutral Red uptake cell viability assay, COS-7; conditions: African green monkey
[10] = Neutral Red uptake cell viability assay, Caco-2; conditions: human
[11] = Neutral Red uptake cell viability assay, Vero; conditions: African green monkey, CC50, Vero (Fig 4F)
[12] = Neutral Red uptake / Alamar Blue cell viability assay, 293T; conditions: human
[13] = tested on: RhCMV; set-up: method as in ref 35, 38 (a number printed in a supplementary file, which may have a reference list of its own: not looked up in the article's list); conditions: Table S1; read-out: antiviral EC50, RhCMV; cited from earlier work
[14] = Neutral Red uptake cell viability assay, HFF; conditions: human
[15] = tested on: vaccinia virus VV IHD-5; assay: microbe, parasite or virus in culture; format: cell-based; conditions: read-out: antiviral EC50, VV
[16] = tested on: SARS-CoV-2 d6-YFP; conditions: for CDK8 inhibitor sensitivity of SARS-CoV-2 in Caco-2 cells: in words
[17] = tested on: HHV-6A-GFP; assay: HHV-6A plaque reduction assay in HFFs
[18] = tested on: SARS-CoV-2 d6-YFP; assay: microbe, parasite or virus in culture
[19] = tested on: MHV-68-Luc; assay: MHV-68-Luc luciferase reporter assay; format: cell-based, murine herpesvirus 68
[20] = tested on: KSHV; set-up: method as in ref 35, 38 (a number printed in a supplementary file, which may have a reference list of its own: not looked up in the article's list); conditions: Table S1; read-out: antiviral EC50, KSHV; cited from earlier work
[21] = tested on: HHV-6A; set-up: method as in ref 35 (a number printed in a supplementary file, which may have a reference list of its own: not looked up in the article's list); conditions: Table S1; J-Jhan cells; read-out: antiviral EC50, HHV-6A (J-Jhan); cited from earlier work
[22] = tested on: EHV-1; assay: EHV-1-specific qPCR of virus release into culture medium; format: cell-based, equine herpesvirus 1
[23] = tested on: Epstein–Barr virus P3HR-1; assay: EBV lytic assay in TPA-induced P3HR-1 cells, qPCR; format: cell-based
[24] = tested on: EHV-1-GFP; assay: EHV-1-GFP antiviral assay, GFP fluorometry; format: cell-based, equine herpesvirus 1
[25] = tested on: HCMV; set-up: method as in ref 35, 38 (a number printed in a supplementary file, which may have a reference list of its own: not looked up in the article's list); conditions: Table S1; read-out: antiviral EC50, HCMV; cited from earlier work
[26] = tested on: HAdV; set-up: method as in ref 35, 38 (a number printed in a supplementary file, which may have a reference list of its own: not looked up in the article's list); conditions: Table S1; read-out: antiviral EC50, HAdV; cited from earlier work
[27] = tested on: HCMV TB40-YFP; assay: HCMV time-of-addition reporter assay in HFFs, TB40-YFP
[28] = tested on: GPCMV; set-up: method as in ref 35, 38 (a number printed in a supplementary file, which may have a reference list of its own: not looked up in the article's list); conditions: Table S1; read-out: antiviral EC50, GPCMV; cited from earlier work
[29] = tested on: Vero cells
[30] = tested on: HCMV AD169-GFP; assay: HCMV time-of-addition reporter assay in HFFs, AD169-GFP
[31] = tested on: MEFs
[32] = tested on: Caco-2 cells
[33] = tested on: 293T-tdTom-Luc cells
[34] = tested on: P3HR-1 cells
[35] = tested on: HCMV Merlin-GFP; assay: HCMV time-of-addition reporter assay in HFFs, Merlin-GFP
[36] = tested on: Caco-2 cells; assay: Neutral Red uptake cell viability assay, Caco-2; conditions: read-out: mean CC50; Caco-2 (Fig 7D)
[37] = in vitro; conditions: human; remark: listed apart in the source
[38] = in vitro; conditions: African green monkey
[39] = in vitro; conditions: African green monkey; remark: listed apart in the source
[40] = in vitro; conditions: mouse
[41] = Neutral Red uptake cell viability assay, P3HR-1; conditions: human
[42] = Human betaherpesvirus 6A, read-out: Antiviral mean EC50 based on plaque assay measurements
[43] = read-out: Antiviral mean EC50 based on YFP measurements, SARS-CoV-2 d6-YFP, Caco-2, […]

CN(C)C(=O)Cn1cc(-c2ccc(-c3cncc4ccccc34)cc2)cn1 [BI-1347]
EC50 [1]: > 50000 nM
CC50 at 7 d [2]: > 100000 nM
EC50 [3]: 10 ± 20 nM
EC50 [4]: 2 ± 4 nM
EC50 [5]: 700 ± 1600 nM
EC50 [6]: 20 ± 10 nM
EC50 [7]: 26000 ± 10000 nM
CC50 [8]: > 100000 nM
CC50 at 4 d ([9]; CC50, COS-7 (Fig 4F)): > 100000 nM
CC50 at 4 d ([9]; CC50, COS-7, listed with GFP / COS-7 (Fig 1E)): > 50000 nM
CC50 at 4 d ([9]; CC50, COS-7, listed with qPCR / COS-7 (Fig 1E)): > 50000 nM
CC50 at 3 d [10]: > 100000 nM
CC50 at 7 d [11]: > 100000 nM
CC50 at 2 d [12]: 93000 ± 5000 nM
EC50 [13]: 0.4 ± 0.5 nM
CC50 ([14]; CC50, HFF, listed with qPCR / HFF (Fig 1E)): > 50000 nM
CC50 ([14]; mean CC50, HFF, HHV-6A assay conditions (Fig 2D)): > 100000 nM
EC50 ([15]; Orthopoxvirus vaccinia): > 50000 nM
CDK8 inhibitor sensitivity of SARS-CoV-2 in Caco-2 cells [16]: low level of sensitivity
EC50 [17, 42]: 200 ± 200 nM
EC50 ([17]; Human betaherpesvirus 6A, read-out: antiviral EC50, HHV-6A (HFF)): 300 ± 200 nM
EC50 ([18]; Severe acute respiratory syndrome coronavirus 2, Caco-2, 30 h, read-out: Antiviral mean EC50 based on YFP measurements): ≥ 15400 nM
EC50 ([18]; Severe acute respiratory syndrome coronavirus 2, Caco-2, read-out: antiviral EC50, SARS-CoV-2): 22800 ± 3200 nM
EC50 ([19]; Murine herpesvirus, COS-7, read-out: antiviral EC50, MHV-68 (COS-7), Table S1, COS-7): 0.1 ± 0.1 nM
EC50 ([19]; Murine herpesvirus, Vero, read-out: antiviral EC50, MHV-68 (Vero), Table S1, Vero): 0.5 ± 0.03 nM
EC50 ([19]; Murine herpesvirus, read-out: antiviral EC50, MHV-68 (HFF), Table S1, HFF): 40 ± 20 nM
EC50 ([19]; Murine herpesvirus, read-out: antiviral EC50, MHV-68 (MEF), Table S1, MEF): 6 ± 2 nM
EC50 [20]: 300 ± 600 nM
EC50 [21]: > 50000 nM
EC50 ([22]; EHV-1, qPCR / COS-7, read-out: EC50): < 3 nM
EC50 ([22]; Equus caballus): 20 ± 50 nM
EC50 ([22]; Equus caballus, read-out: antiviral EC50, EHV-1 (HFF)): 30 ± 30 nM
EC50 ([23]; human gammaherpesvirus 4, P3HR-1, Table S1, read-out: antiviral EC50, EBV): 5500 ± 4200 nM
EC50 ([24]; COS-7): 80 nM
EC50 [25]: 0.9 ± 0.7 nM
EC50 [26]: 50 ± 100 nM

Cn1ncc2cc(-c3cnc(N)c(Cl)c3N3CCC4(CCNC4=O)CC3)ccc21 [CCT-251921]
EC50 [1]: > 50000 nM
EC50 [3]: 30 ± 20 nM
EC50 [4]: 20 ± 50 nM
EC50 ([27]; read-out: TB40-YFP EC50, drug addition 0 d p.i., readout 7 d p.i.): 8.7 ± 5 nM
EC50 ([27]; read-out: TB40-YFP EC50, drug addition 1 d p.i., readout 7 d p.i.): 26 ± 4 nM
EC50 ([27]; read-out: TB40-YFP EC50, drug addition 2 d p.i., readout 7 d p.i.): > 50 nM
EC50 ([27]; read-out: TB40-YFP EC50, drug addition 3 d p.i., readout 7 d p.i.): > 50 nM
EC50 ([27]; read-out: TB40-YFP EC50, drug addition 4 d p.i., readout 7 d p.i.): > 50 nM
EC50 [5]: 3700 ± 3000 nM
EC50 [6]: > 40 nM
EC50 [7]: 28000 ± 9000 nM
EC50 [28]: 50 ± 80 nM
CC50 [29]: > 100000 nM
EC50 [13]: 3 ± 2 nM
EC50 ([30]; read-out: AD169-GFP EC50, drug addition 0 d p.i., readout 7 d p.i.): 0.7 ± 0.7 nM
EC50 ([30]; read-out: AD169-GFP EC50, drug addition 1 d p.i., readout 7 d p.i.): 3.2 ± 2.6 nM
EC50 ([30]; read-out: AD169-GFP EC50, drug addition 2 d p.i., readout 7 d p.i.): 8.3 ± 7.9 nM
EC50 ([30]; read-out: AD169-GFP EC50, drug addition 3 d p.i., readout 7 d p.i.): > 50 nM
EC50 ([30]; read-out: AD169-GFP EC50, drug addition 4 d p.i., readout 7 d p.i.): > 50 nM
EC50 [15]: > 50000 nM
CC50 [31]: > 100000 nM
CDK8 inhibitor sensitivity of SARS-CoV-2 in Caco-2 cells [16]: lack of CDK8 inhibitor sensitivity
EC50 [16, 43]: ≥ 15400 nM
EC50 ([16]; read-out: antiviral EC50, SARS-CoV-2, Table S1): 62400 ± 18500 nM
EC50 ([17]; read-out: antiviral EC50, HHV-6A (HFF), Table S1, HFF): 40 ± 20 nM
EC50 ([19]; Table S1, COS-7, read-out: antiviral EC50, MHV-68 (COS-7)): 0.5 ± 0.9 nM
EC50 ([19]; Table S1, HFF, read-out: antiviral EC50, MHV-68 (HFF)): 500 ± 300 nM
EC50 ([19]; Table S1, MEF, read-out: antiviral EC50, MHV-68 (MEF)): 10 ± 9 nM
EC50 ([19]; Table S1, Vero, read-out: antiviral EC50, MHV-68 (Vero)): 2 ± 1 nM
EC50 [20]: 300 nM
EC50 [21]: 39000 ± 21000 nM
EC50 ([22]; EHV-1, qPCR / HFF, read-out: EC50): 800 nM
CC50 [32]: > 100000 nM
CC50 [33]: 95300 ± 6600 nM
EC50 ([23]; Table S1, read-out: antiviral EC50, EBV): 2500 ± 1000 nM
CC50 [34]: > 100000 nM
EC50 ([24]; EHV-1, GFP / COS-7, read-out: EC50): 100 nM
EC50 ([35]; read-out: Merlin-GFP EC50, drug addition 0 d p.i., readout 7 d p.i.): 0.7 ± 1.3 nM
EC50 ([35]; read-out: Merlin-GFP EC50, drug addition 1 d p.i., readout 7 d p.i.): 13 ± 8 nM
EC50 ([35]; read-out: Merlin-GFP EC50, drug addition 2 d p.i., readout 7 d p.i.): 3.4 ± 6.8 nM
EC50 ([35]; read-out: Merlin-GFP EC50, drug addition 4 d p.i., readout 7 d p.i.): 5.9 ± 4.9 nM
EC50 [25]: 4 ± 2 nM
EC50 [26]: 30 ± 30 nM

O=c1nc(NO)ccn1[C@@H]1O[C@H](CO)[C@@H](O)[C@H]1O [EIDD-1931]
CC50 [36]: > 100000 nM
EC50 [16, 43]: 4100 ± 1400 nM

Nc1nc(O)c2ncn(COC(CO)CO)c2n1 [GCV, ganciclovir]
CC50 ([37]; CC50): > 50000 nM
CC50 ([37]; mean CC50): > 100000 nM
CC50 at 7 d [38]: > 100000 nM
EC50 [17, 42]: 2500 ± 600 nM
CC50 at 4 d [39]: > 100000 nM
EC50 ([19]; Murine herpesvirus, MHV-68-Luc, HFF): > 50000 nM
EC50 ([19]; Murine herpesvirus, MHV-68-Luc, MEF): 9400 ± 6300 nM
EC50 ([19]; Murine herpesvirus, Vero, MHV-68-Luc): 900 ± 700 nM
CC50 at 7 d [40]: > 100000 nM
EC50 [24]: 1300 ± 300 nM
EC50 ([24]; COS-7): 200 ± 100 nM
EC50 ([24]; Equus caballus, Vero): 40 ± 50 nM

CC(C)OC(=O)[C@H](C)N[P@](=O)(CO[C@H](C)Cn1cnc2c(N)ncnc21)Oc1ccccc1 [TAF, tenofovir alafenamide]
CC50 at 10 d [41]: > 100000 nM
EC50 ([23]; human gammaherpesvirus 4, P3HR-1, 240 h, read-out: Antiviral mean EC50 based on qPCR measurements): 1800 nM
